According to patent publication US20120010178A1, “METHODS AND COMPOUNDS FOR TREATMENT OF NEURODEGENERATIVE DISORDERS” (PRESIDENT AND FELLOWS OF HARVARD COLLEGE, priority 2008, published 2012):
“Also recorded” adds a separate entry of the source. Residues, ends and D or L forms follow the SMILES beside them. *: point of attachment. Cbz = O=C(OCc1ccccc1)*

Legend:
SMN [1] = assay: SMN immunofluorescence quantification (cytoplasm, nucleus, GEMs) in fibroblasts from SMA patients; type: cell-based, human; settings: for levels of cytoplasmic and nuclear SMN (in words) / fold increase in nuclear SMN / fold increase in cytoplasmic SMN: SMA patient fibroblasts; for levels of cytoplasmic and nuclear SMN (in words): substance alone
Protocol: Specifically, fibroblasts from patients suffering from SMA were treated with Ionomycin (a channel modulator), Ouabain (a cardiac glycoside and channel modulator), PDGF, SAHA (an HDAC inhibitor), Lactacystin (a proteasome inhibitor) or WIN 55,212-2 (a cannabinoid receptor […] and GPCR ligand) for 72 hours. The cells were fixed with methanol/acetone and stained with Pharmingen BD antibodies, followed by 488 AlexaFluor staining. Images were obtained with 60× lens on Zeiss LSM510 META on an inverted confocal microscope.
For example, fibroblasts from patients suffering from SMA were treated with Ouabain, Digoxin or Lanatoside at a concentration of 0, 2.5 nM, 5 nM, 10 nM, 20 nM, 40 nM, 80 nM, […] for 72 hours. The cells were fixed with methanol/acetone and stained with Pharmingen BD antibodies, followed by 488 AlexaFluor staining. Images were obtained with 60× lens on Zeiss LSM510 META on an inverted confocal microscope.
An assay was established for high-content evaluation of SMN protein level in different cellular compartments after treatment with small molecules. SMN protein was visualized by immunofluorescent staining and multiple fields from each plate well were scanned by an automated confocal Opera microscope. […] For each well, the algorithm generated quantitative parameters representing number of cells, as well as SMN fluorescent intensity per cell in cytoplasm, nucleus, number and intensity of GEMs (FIG. 15). […] During the assay transfer to the robotic platform fixation with the ice cold methanol was technically limited, therefore to preserve the maximum possible window we chose to perform the screen on parental fibroblast with PFA fixation.
For fibroblast assays, human fibroblasts lines GM09677 (derived from patient with SMA type 1 disease) and GM03814 (derived from unaffected parental SMA carriers) were used (Coriell Cell Repositories). […] For secondary assays cells from GM09677 line were used.
Fibroblasts were grown in MEM media (Invitrogen) supplemented with 5% Fetal Bovine Serum (FBS, Invitrogen), 2 mM glutamine and 1% penicillin-streptomycin (100 U/ml) in a presence of 5% CO2 at 37° C. For drug treatments, cells were plated and treated 24 h later with 10 μM MG132 (Biomol International), […] Calpeptin (Biomol International), 10 mM ammonium chloride, 1 μM myristoylated PKI, or vehicle for the designated times.
Compounds were stored at appropriate temperature and dissolved accordingly to the manufacturers (Tocris, Enzo, EMD and Sigma-Aldrich) in DMSO (Sigma-Aldrich), unless stated otherwise (Monensin Na in EtOH, DMPQ in water). Growth factors and PDGF neutralizing antibodies (R&D Systems) were reconstituted with buffers recommended by the supplier. For generation of the dose curves, 1×10^3 fibroblasts were plated on to 96-well Greiner Senso plates (VWR) and treated with compounds on the second day then fixed and stained at the indicated time points. For GSK inhibitors and performing p-GSK3b(Ser9) detection, two days after plating growth media containing 5% FBS was replaced to the media with FBS reduced down to 0.5%, to starve cells for 72 hours. Addition of the GSK inhibitors was done in 5% FBS enriched media.

SMN [2] = assay: High-content fibroblast screen for compounds that modulate SMN level; settings: for SMN level in fibroblast screen (increase or decrease): human fibroblasts, 2-3 days with compound;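 on all read-outs here: Anti-SMN immunostaining with confocal imaging of nuclear and cytoplasmic SMN and gem counts, tested at 0.1, 1 and 10 uM, fold change relative to negative control wells on each plate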

N#CCCc1ccc2c(c1)-c1[nH]c3ccc([N+](=O)[O-])cc3c1CC(=O)N2
levels of cytoplasmic and nuclear SMN (in words) (SMN [1]): able to elevate SMN in patient fibroblasts | SMN level in fibroblast screen (increase or decrease) (SMN [2]): SMN is increase

CNc1ccc2oc(C[C@H]3O[C@@]4(CC[C@H]3C)O[C@H]([C@H](C)C(=O)c3ccc[nH]3)[C@H](C)C[C@H]4C)nc2c1C(=O)O [Calcimycin]
levels of cytoplasmic and nuclear SMN (in words) (SMN [1]): elevation of SMN levels; also recorded: active in elevating the levels of SMN; also recorded: generally active | levels of cytoplasmic and nuclear SMN (in words) (SMN [1]; listed as A23187): active | SMN level in fibroblast screen (increase or decrease) (SMN [2]): increase SMN

O=C1Nc2ccc3ncsc3c2/C1=C/Nc1ccc(S(=O)(=O)Nc2ccccn2)cc1 [GW8510]
SMN level in fibroblast screen (increase or decrease) (SMN [2]): SMN is increase

O=C(Nc1cc(C(F)(F)F)cc(C(F)(F)F)c1)c1cc(Cl)ccc1O [IMD-0354]
SMN level in fibroblast screen (increase or decrease) (SMN [2]): SMN is increase

C[C@H](CCC(=O)O)C[C@H](C)C[C@H](C)C(=O)/C=C(\O)[C@H](C)C[C@H](C)C/C=C/[C@@H](C)[C@@H](O)[C@@H](C)[C@@H](O)C[C@@H]1CC[C@@](C)([C@H]2CC[C@@](C)([C@@H](C)O)O2)O1 [Ionomycin]
levels of cytoplasmic and nuclear SMN (in words) (SMN [1]): increase in SMN levels; also recorded: active in elevating the levels of SMN; also recorded: able to increase SMN level | levels of cytoplasmic and nuclear SMN (in words) (SMN [1]; listed as ionomycin): elevation of SMN levels; also recorded: active | SMN level in fibroblast screen (increase or decrease) (SMN [2]): increase SMN

CC(=O)N[C@@H](CSC(=O)[C@]1([C@@H](O)C(C)C)NC(=O)[C@H](C)[C@@H]1O)C(=O)O [Lactacystin]
levels of cytoplasmic and nuclear SMN (in words) (SMN [1]): increase in SMN levels | effect on GEMs (number / intensity, in words) (SMN [1]; fibroblasts): mostly affected GEMs | SMN level in fibroblast screen (increase or decrease) (SMN [2]): increase SMN

CC(=O)O[C@H]1C[C@H](O[C@H]2[C@@H](O)C[C@H](O[C@H]3[C@@H](O)C[C@H](O[C@H]4CC[C@@]5(C)[C@H](CC[C@@H]6[C@@H]5C[C@@H](O)[C@]5(C)[C@@H](C7=CC(=O)OC7)CC[C@]65O)C4)O[C@@H]3C)O[C@@H]2C)O[C@H](C)[C@H]1O[C@@H]1O[C@H](CO)[C@@H](O)[C@H](O)[C@H]1O [Lanatoside C]
SMN level in fibroblast screen (increase or decrease) (SMN [2]): increase SMN

Clc1ccc2ncnc(NCc3ccc4c(c3)OCO4)c2c1 [MBCQ]
SMN level in fibroblast screen (increase or decrease) (SMN [2]): increase SMN

CC(C)C[C@@H](C=O)NC(=O)[C@H](CC(C)C)NC(=O)[C@H](CC(C)C)NC(=O)OCc1ccccc1 [MG-132] (Cbz-Leu-Leu-Leu-aldehyde)
SMN level in fibroblast screen (increase or decrease) (SMN [2]): increase SMN

CC[C@@]1([C@@H]2O[C@@H]([C@H]3O[C@@](O)(CO)[C@H](C)C[C@@H]3C)C[C@@H]2C)CC[C@H]([C@]2(C)CC[C@]3(C[C@H](O)[C@@H](C)[C@@H]([C@@H](C)[C@@H](OC)[C@H](C)C(=O)O)O3)O2)O1 [Monensin Na]
fold increase in nuclear SMN (SMN [1]): 2 fold | SMN level in fibroblast screen (increase or decrease) (SMN [2]): increase SMN

O=C(Nc1ccc([N+](=O)[O-])cc1Cl)c1cc(Cl)ccc1O [Niclosamide]
SMN level in fibroblast screen (increase or decrease) (SMN [2]): SMN is increase

C[C@@H]1O[C@@H](O[C@H]2C[C@@H](O)[C@]3(CO)[C@H]4[C@H](O)C[C@]5(C)[C@@H](C6=CC(=O)OC6)CC[C@]5(O)[C@@H]4CC[C@]3(O)C2)[C@H](O)[C@H](O)[C@H]1O [Ouabain]
levels of cytoplasmic and nuclear SMN (in words) (SMN [1]): increase in SMN levels | SMN level in fibroblast screen (increase or decrease) (SMN [2]): increase SMN | SMN level in fibroblast screen (increase or decrease) (SMN [2]; listed as ouabain): consistently emerged as hits

Nc1ccc(-c2cccc3c(=O)cc(N4CCOCC4)oc23)cc1 [PI-828]
SMN level in fibroblast screen (increase or decrease) (SMN [2]): decreased SMN

O=C1Nc2ccc3ncsc3c2C1=Cc1cnc[nH]1 [PKR inhibitor, 6,8-Dihydro-8-(1H-imidazol-5-ylmethylene)-7H-pyrrolo[2,3-g]benzothiazol-7-one]
fold increase in cytoplasmic SMN (SMN [1]): 2 fold | fold increase in nuclear SMN (SMN [1]): 1.5 fold | SMN level in fibroblast screen (increase or decrease) (SMN [2]): SMN is increase

O=C(CCCCCCC(=O)Nc1ccccc1)NO [SAHA, Suberoylanilide Hydroxamic Acid]
levels of cytoplasmic and nuclear SMN (in words) (SMN [1]): increase in SMN levels | effect on GEMs (number / intensity, in words) (SMN [1]; fibroblasts): increased GEM counts at the lower concentrations | nuclear SMN at the higher dosage (in words) (SMN [1]; fibroblasts, higher dosage): increased nuclear SMN predominantly | SMN level in fibroblast screen (increase or decrease) (SMN [2]): increase SMN

C/C=C(/C)C(=O)O[C@H]1C(C)=C2[C@H]([C@@H]1OC(=O)CCCCCCC)[C@@](C)(OC(C)=O)C[C@H](OC(=O)CCC)[C@@]1(O)[C@H]2OC(=O)[C@@]1(C)O [Thapsigargin]
levels of cytoplasmic and nuclear SMN (in words) (SMN [1]): active in elevating the levels of SMN; also recorded: generally active; also recorded: caused SMN upregulation | levels of cytoplasmic and nuclear SMN (in words) (SMN [1]; listed as thapsigagin): elevation of SMN levels | SMN level in fibroblast screen (increase or decrease) (SMN [2]): increase SMN

CC(C)[C@@H]1NC(=O)[C@H](C)OC(=O)[C@@H](C(C)C)NC(=O)[C@@H](C(C)C)OC(=O)[C@H](C(C)C)NC(=O)[C@H](C)OC(=O)[C@@H](C(C)C)NC(=O)[C@@H](C(C)C)OC(=O)[C@H](C(C)C)NC(=O)[C@H](C)OC(=O)[C@@H](C(C)C)NC(=O)[C@@H](C(C)C)OC1=O [Valinomycin]
SMN level in fibroblast screen (increase or decrease) (SMN [2]): increase SMN

Cc1c(C(=O)c2cccc3ccccc23)c2cccc3c2n1[C@H](CN1CCOCC1)CO3 [WIN 55, 212-2]
fold increase in cytoplasmic SMN (SMN [1]): 1.5 fold | fold increase in nuclear SMN (SMN [1]): 2 fold | levels of cytoplasmic and nuclear SMN (in words) (SMN [1]): increase in SMN levels | SMN level in fibroblast screen (increase or decrease) (SMN [2]): increase SMN

Coumermycin A1
concentration at which SMN level was increased (SMN [2]; during screening): 10 µM | SMN level in fibroblast screen (increase or decrease) (SMN [2]): increase SMN

ceramide
SMN level in fibroblast screen (increase or decrease) (SMN [2]): increase SMN
